# According to BindingDB's records for doi:10.1016/j.bmcl.2012.06.057 (Sanofi-Aventis Deutschland, 2012):
# Experiments:
# [1] = Antagonist activity at LPA5 receptor in human isolated platelets assessed as inhibition of hexadecyl-LPA-induced platelet aggregation after 3 mins
# [2] = Antagonist activity at LPA2 receptor in human isolated platelets assessed as inhibition of TRAP-induced platelet aggregation after 3 mins
IC50 [1] [µM],IC50 [2] [µM],Compound
> 30,,Cc1csc2c(N[C@@H](C)CN3CCN(S(=O)(=O)c4ccc(Cl)c(Cl)c4)CC3)ncnc12
2.2,> 10,COc1cccc(-n2nc(C(=O)O)cc2-c2ccc(C3CCCCC3)c(Cl)c2)c1
> 30,,Cc1noc(-c2ccc(CSCCC(=O)O)cc2)c1NC(=O)OC(C)c1ccccc1Cl (centres undefined) [3-(4-(4-((1-(2-chlorophenyl)ethoxy)carbonylamino)-3-methylisoxazol-5-yl)benzylthio)propanoic acid]
